In patent publication US20100062465A1, “Detection of Histone Deacetylase Inhibition” (priority 2006, published 2010):
Where “and” joins values, the source holds several entries; their conditions need not be identical. Identical values can stand only once. Counter-ions that a name gives are not always drawn.

Experiments:
PC3 cells [1] = assay: 31P MRS of PC3 cell extracts (phosphocholine); assay type: cell-based, human; settings: 24 h
Method: For MRS studies, PC3 cells were treated for 24 h with FSAHA at 2, 5, 7, 8, 9 and 10 μM in the presence of 1 mM BLT or with 1 mM BLT alone. […] The number of cells extracted was determined by counting a separate flask of cells. ^19F MR spectra of the water-soluble metabolites were recorded as above. Metabolite concentrations were determined by integration and comparison with the area of the external C6F6 reference, normalizing to cell number and correcting for saturation effects. Correction for saturation effects was achieved by also acquiring a quantitative inverse gated fully relaxed spectrum on two different samples and calculating the correction factors which need to be applied to the partially relaxed spectra. It was determined that the T1 relaxation of BLT is 1 s and that of C6F6 is 3 s. The fully relaxed spectrum was therefore acquired using a 90 deg. flip angle and a 15 s relaxation delay (5 times the longest T1). ^31P MR spectra were recorded on an Avance DRX500 Bruker spectrometer (Bruker Biospin Germany) using a 30 deg. flip angle and 3 s relaxation delay. […]

[2] = system: PC3 human prostate cancer cells; assay: WST-1 cell proliferation assay; assay type: cell-based
Method: PC3 human prostate cancer cells were routinely cultured in DMEM/F12 (Gibco NY USA) supplemented with 10% FCS (Hyclone, Utah USA) and 10,000 U/mL penicillin 10,000 μg/mL streptomycin and […] amphtenicin B (Gibco, NY USA) at 37° C. in 5% CO2.
To assess the effect on cell proliferation of BLT the colorimetric WST-1 cell proliferation assay (Roche USA) was used and manufacturer instructions followed. Briefly, 20×10^3 cells/well were seeded in 96 well plates. Cells were then treated for 24 hours with BLT at 5 μM, 10 μM, 20 μM, 50 μM, 100 μM, 200 μM, 500 μM, 1 mM, 2 mM, 5 mM and 10 mM or with matched DMSO (1.20,000 to 1.10). Subsequently cells were incubated for 4 hours with the WST-1 cell proliferation reagent and absorbance read at 440 nm using a Tecan Freedom Evo liquid handler equipped with the SAFIRE monochromator-based microplate reader (Tecan U.S., NC, USA).
Note that controls were treated with DMSO in order to clearly identify effects which are due to the compound being investigated rather than its vehicle (DMSO). FSAHA dose was based on previous findings (Butler L M, Agus D B, Scher H I, et al. Suberoylanilide hydroxamic acid, an inhibitor of histone deacetylase, suppresses the growth of prostate cancer cells in vitro and in vivo. Cancer Res 2000 September 15;60(18):5165-70).

PC3 cells [3] = assay: 19F MRS of PC3 cell extracts (intracellular BLT, TFA, FSAHA); assay type: cell-based, human; settings: for Intracellular BLT level: 24 h
Method: For MRS studies, PC3 cells were treated for 24 h with FSAHA at 2, 5, 7, 8, 9 and 10 μM in the presence of 1 mM BLT or with 1 mM BLT alone. Approximately 1×10^7-1.5×10^7 cells were then extracted using the dual phase extraction method as previously described (Chung Y L, Troy H, Banerji U, et al. Magnetic resonance spectroscopic pharmacodynamic markers of the heat shock protein 90 inhibitor 17-allylamino, 17-demethoxygeldanamycin (17AAG) in human colon cancer models. J Natl Cancer Inst 2003 November 5;95(21):1624-33, Tyagi R K, Azrad A, Degani H, Salomon Y. Simultaneous extraction of cellular lipids and water-soluble metabolites: evaluation by NMR spectroscopy. Magn Reson Med 1996 February;35(2):194-200.47). Briefly, cells were extensively rinsed with ice-cold saline to remove any residual extracellular BLT and medium. Cells were then fixed in 10 ml of ice-cold methanol, scraped off the surface of the culture flask, collected into glass tubes and vortexed. 10 ml of ice-cold chloroform was then added followed by 10 ml of ice-cold de-ionized water. Following phase separation and solvent removal the water-soluble fraction was reconstituted in 250 μl of deuterium oxide (D2O) and 250 μl of DMSO for ^19F MR measurements. To perform the ^31P MR measurement 100 μl of EDTA and 50 μl methylene diphosphonic acid (MDPA) in D2O were added to a final concentration of 10 mM and 0.35 mM respectively. The number of cells extracted was determined by counting a separate flask of cells. ^19F MR spectra of the water-soluble metabolites were recorded as above. Metabolite concentrations were determined by integration and comparison with the area of the external C6F6 reference, normalizing to cell number and correcting for saturation effects. Correction for saturation effects was achieved by also acquiring a quantitative inverse gated fully relaxed spectrum on two different samples and calculating the correction factors which need to be applied to the partially relaxed spectra. It was determined that the T1 relaxation of BLT is 1 s and that of C6F6 is 3 s. The fully relaxed spectrum was therefore acquired using a 90 deg. flip angle and a 15 s relaxation delay (5 times the longest T1). ^31P MR spectra were recorded on an Avance DRX500 Bruker spectrometer (Bruker Biospin Germany) using a 30 deg. flip angle and 3 s relaxation delay. Metabolite concentrations were determined by integration and comparison with the area of the internal MDPA reference, normalizing to cell number and correcting for saturation effects (correction factors were determined as above by acquiring a fully relaxed quantitative spectrum using a 90 deg. flip angle and a 30 s relaxation delay).
To monitor the fluorinated metabolites, the lipid phase was reconstituted in 500 μl CDCl3. To monitor the fluorinated metabolites in cellular protein, the protein pellet obtained during cell extraction was dissolved in 1 ml of 0.5 M NaOH and heated to 60° C. for 1 h. Samples were then analyzed by ^19F MRS as above.

PC3 cells [4] = assay: GC-MS analysis of TFA in extracellular medium; assay type: cell-based, human
From the text: To assess build-up of TFA in medium, samples of extracellular medium were collected and analyzed using gas chromatography-mass spectroscopy (GC-MS). In order to be able to use standard capillary GC-MS, TFA had to be derivatized. This was done using a modification of the procedure of Scott et al. (Scott B F, Mactavish D, Spencer C, Strachan W M J, Muir D C G. Haloacetic acids in Canadian lake waters and precipitation. Environmental Science & Technology 2000;34:4266-72) as follows. One ml of sample, or TFA standard in medium, was treated with 20 mg NaCl, 60 μL HCl, and 30 μl each of 100 mM 1,3-dicyclohexylcarbohiimide (Sigma-Aldrich Chemical Co., MO. USA) and 2,4-difluoroaniline (Sigma-Aldrich Chemical Co., MO. USA) and adjusted to a final volume of 1.320 ml in ethyl acetate. Mixture was vortexed for 60 minutes at room temperature; an additional 50 mg of NaCl added and sample briefly vortexed. Following phase separation the organic layer was removed and stored. The aqueous phase was further extracted twice with 200 μl of ethyl acetate. All three ethyl acetate extracts were combined and treated with 50 μl 3M HCl and 50 μL saturated anhydrous sodium sulfate (Na2SO4), vortexed and another 20 mg of Na2SO4 added and mixed. The organic phase was then evaporated to dryness under a dry nitrogen gas stream. The residue was dissolved in 250 μL of toluene and transferred into sample vials for analysis. Three microliters of sample extract were analyzed using an Agilent 6890N GC coupled to 5973N MSD in splitless injection mode. TFA was resolved using a Supleco Omegawax 250 capillary column (30 m×0.25 mm). Column temperature was 100° C. for one minute, ramping to 230° C. at 25° C. per minute and then held at 230° C. for two minutes. Detection was performed in EI positive mode monitoring the m/z 225 ion.

[5] = PC3 control cells, 1 mM BLT alone
[6] = PC3 cells, 10 μM FSAHA in the presence of 1 mM BLT

Row | Structure (SMILES) | Phosphocholine (PC) level (PC3 cells [1]; [5]) | Effect on cell proliferation compared to matched DMSO controls ([2]; 5 μM to 10 mM, 24 hours) | activity at 1000 µM ([2]; Homo sapiens, PC-3, 24-hour treatment with 1 mM BLT, read-out: Cell numbers, % of controls) [%] | Intracellular BLT level (PC3 cells [3]; PC3 cells, 1 mM BLT alone (control cells)) | Intracellular TFA concentration (PC3 cells [3]; [5]) [fmol/cell] | Level of TFA in cellular growth medium (PC3 cells [4]; [5]) [µg/mL] | Phosphocholine (PC) level (PC3 cells [1]; [6]) | Cell proliferation relative to control ([2]; 2 μM) [%] | Cell proliferation relative to control ([2]; 2 μM in the presence of 1 mM BLT) [%] | Cell proliferation relative to control ([2]; 5 μM) [%] | Cell proliferation relative to control ([2]; 5 μM in the presence of 1 mM BLT) [%] | Cell proliferation relative to control ([2]; 10 μM) [%] | Cell proliferation relative to control ([2]; 10 μM in the presence of 1 mM BLT) [%] | Average increase of intracellular BLT (PC3 cells [3]; 10 μM FSAHA-treated PC3 cells) [fmol/cell] | Intracellular TFA concentration (PC3 cells [3]; [6]) [fmol/cell] | Intracellular BLT level (PC3 cells [3]; [6]) | Average lowering of TFA in medium compared to controls (PC3 cells [4]; 10 μM FSAHA-treated PC3 cells) [µg/mL] | Level of TFA in cellular growth medium (PC3 cells [4]; [6]) [µg/mL] | Lowering of TFA in medium calculated from the BLT increase (PC3 cells [4]; assuming all TFA from BLT cleavage is removed into the medium, 10 μM FSAHA) [µg/mL]
1 | CC(C)(C)OC(=O)N[C@@H](CCCCNC(=O)C(F)(F)F)C(=O)O [BLT, Boc-Lys-TFA-OH] | 7±1 fmol/cell and 7 fmol/cell | did not significantly affect cell proliferation | 95 ± 4 | 14±4 fmol/cell and 14 fmol/cell | 1.1±0.6 | 5 ± 0.4 |  |  |  |  |  |  |  |  |  |  |  |  | 
2 | O=C(CCCCCCC(=O)Nc1ccc(F)cc1)NO [FSAHA, 4-Fluorosuberanilohydroxamic acid] |  |  |  |  |  |  | 16±2 fmol/cell and 16 fmol/cell and 15 fmol/cell | 87±5 | 86±1 | 79±3 | 77±7 | 66±6 | 63±2 | 18 | 1±1 | 32±4 fmol/cell and 32 fmol/cell | 1.6 | 3.4 ± 0.7 | 1.3
